Here are results for 3 compounds from US7652027B2, “Phenanthroindolizidine alkaloids” (National Health Research Institutes, priority 2005, dated 2010).

The test system of assay [1] is AP1. The assay is described as follows: pAP 1-Luc luciferase reporter assay in LPS/IFNγ-treated RAW 264.7 (or A549) cells. The format is cell-based. The conditions noted are these: at the concentration higher than 1 μM; LPS (10 μg/ml)/IFNγ (20 ng/ml), 5 h. How it is done: (§1) The luciferase and β-galactosidase assays were performed using a STEADY-GLO luciferase assay system (Promega) and Galacto-Star assay system (Tropix) according to the manufacturer's instructions. Luminescence was measured in a TOPCOUNT.NXT™ Microplate Scintillation and Luminescence Counter (Packard Inc.). The results were normalized to β-galactosidase activity derived from co-transfected LacZ gene under the control of a constitutive promoter.
(§2) RAW 264.7 cells (or A549 cells) were seeded in 24-well plates (10^6 cells/well) 4-6 h before they were transfected with pNF-κB-Luc (Stratagene Corp., Calif.) (100 ng/well) and pCMV-β-gal (100 ng/well), or pAP 1-Luc (Stratagene Corp., Calif.) (200 ng/well) alone. The transfected cells were incubated for 24 h and then washed with the culture medium twice. After 18 h of incubation, the cells were treated with LPS (10 μg/ml)/IFNγ (20 ng/ml) and Compound 2 (final concentration: 0.3, 1, 3, or 10 μM) for 5 h. The cells were subjected to the luciferase and β-galactosidase assays.

Assay [2] relates to NF-κB. The assay is described as follows: pNF-κB-Luc luciferase reporter assay in LPS/IFNγ-treated RAW 264.7 (or A549) cells. The format is cell-based. On the procedure: as §1, §2
For orientation: Reporter assays use an easily measured gene product as a stand-in for the process of interest.

The test system of assay [3] is NUGC-3 (gastric cancer). The assay is described as follows: Carcinoma cell growth inhibition (MTS assay), NUGC-3. The settings on record: 72 h. In kind it is cell-based. How it is done:
(§3) Two cancer cell lines, HONE-1 (nasopharyngeal carcinoma) and NUGC-3 (gastric cancer), were maintained in DMEM medium containing 10% fetal bovine serum, seeded in 96-well plates (4500 and 6000 cells/well, respectively), and incubated under CO2 at 37° C. for 24 h. The cells were treated with at least five different concentrations of test compounds in a CO2 incubator for 72 h. The number of viable cells was estimated using the tetrazolium dye reduction assay (MTS assay) according to the protocol provided by the manufacturer (Promega, Madison, Wis., USA). The absorbance was measured at 490 nm on a Wallac 1420 VICTOR2 Multilabel counter (Perkin-Elmer, Boston, Mass.). The results of these assays were used to obtain the dose-response curves from which IC50 (nM) values were determined (an IC50 value represents the concentration (nM) of the test compound at which it produces a 50% cell growth inhibition after 3 days of incubation).
A general note: Tetrazolium assays rely on reduction of a dye to a coloured formazan, in cell work by metabolically active cells.

The test system of assay [4] is Akt. The assay is described as follows: Phosphorylation of Akt in LPS/IFNγ-treated RAW264.7 cells. The format is cell-based.
In assay [5] the test system is TNF α. The assay is described as follows: TNF α protein ELISA in cell culture supernatants. In kind it is cell-based. How it is done: RAW 264.7 cells were seeded (70,000 cells/well) and cultured in 96-well culture plate. After 24 h incubation, the medium was replaced with one containing LPS (5 ug/ml)/IFNγ (20 ng/ml) and each of Compounds 1-4 (final concentration: 3, 5, or 6 μM) was added at different concentrations. After 18-24 h, the supernatants were subjected to the measurement of nitric oxide production using the Nitrate/Nitrite assay kit (Cayman Chemical). Nitric oxide levels were measured as the accumulation of nitrite and nitrate in the incubation medium. Nitrate was reduced to nitrite with nitrate reductase and determined spectrophotometrically with the Griess reagent at OD405. The attached cells were subjected to cytotoxicity measurement using the MTS assay.
An ELISA kit (R & D Systems Inc., USA) was used to measure TNF α protein in cell culture supernatants using according to the manufacturer's instructions.

Assay [6] concerns AP 1. The assay is described as follows: pAP 1-Luc reporter assay in RAW264.7 cells co-transfected with pFC-MEKK. In kind it is cell-based. The conditions noted are these: at the concentration of 3 μM or higher; cells treated with LPS/IFNγ. How it is done:
as §2
(§4) In a similar manner, RAW264.7 cells were transfected with pNF-κB-Luc plasmids (100 ng/well) or pAP 1-Luc (100 ng/well) as well as pFC-MEKK (Stratagene Corp., Calif.) (50 ng/well) and/or pCMV-β-gal plasmids (100 ng/well) and the transfected cells were subjected to the luciferase and β-galactosidase assays.

Assay [7] deals with iNOS. The assay is described as follows: iNOS level by immunoblotting. The settings on record: immunoblotting of cell lysates. The format is cell-based. How it is done: (§5) Levels of iNOS, COX-II, and β-actin (control) were measured by immunoblotting with anti-iNOS antibody (Biomol), anti-COX-II antibody (Upstate), and anti-β-actin antibody (Chemicon), respectively. The cell lysates were subjected to SDS-PAGE and the separated proteins were electrophoretically transferred to nitrocellulose membranes. The membranes were incubated, respectively, with blocking solution for 1 h, primary antibody for 2 h, and secondary antibody for 1 h. Antigen-antibody complexes were detected using ECL detection reagents (Perkin Elmer, Western Blot Chemiluminescence Reagent Plus) according to the manufacturer's instructions.

For assay [8], the system named is ATF-2. The assay is described as follows: Phosphorylation of ATF-2 in LPS/IFNγ-treated RAW264.7 cells. The format is cell-based.
Assay [9] concerns NF-κB. The assay is described as follows: pNF-κB-Luc reporter assay in RAW264.7 cells co-transfected with pFC-MEKK. In kind it is cell-based. The conditions noted are these: at the concentration of 3 μM or higher; cells treated with LPS/IFNγ. On the procedure:
as §2, §4

The subject of assay [10] is COX-II. The assay is described as follows: COX-II level by immunoblotting. In kind it is cell-based. The settings on record: immunoblotting of cell lysates. On the procedure:
as §5
(In western blotting, separated proteins are transferred to a membrane and probed.)

In assay [11] the target is T1, MEKK1 (Mus musculus, UniProt P53349).
T1 construct: host or cells: RAW264.7
T1 sequence (P53349 1201-1493 limits assumed): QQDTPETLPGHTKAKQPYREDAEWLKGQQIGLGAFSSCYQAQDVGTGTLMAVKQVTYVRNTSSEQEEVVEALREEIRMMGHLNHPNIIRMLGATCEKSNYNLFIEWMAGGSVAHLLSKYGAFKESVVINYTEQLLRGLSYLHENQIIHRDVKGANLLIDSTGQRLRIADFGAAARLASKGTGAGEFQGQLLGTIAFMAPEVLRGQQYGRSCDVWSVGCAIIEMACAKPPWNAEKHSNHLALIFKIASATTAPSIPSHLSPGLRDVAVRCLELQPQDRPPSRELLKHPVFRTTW
The assay is described as follows: MEKK1 inhibition inferred from reporter assays in MEKK1 over-expressing RAW264.7 cells. In kind it is cell-based. The settings on record: suggested by the reporter results in MEKK1 over-expressing cells. How it is done: as §4

Assay [12] relates to c-Jun. The assay is described as follows: Expression of c-Jun in LPS/IFNγ-treated RAW264.7 cells. In kind it is cell-based.
Assay [13] relates to iNOS promoter. The assay is described as follows: iNOS promoter-luciferase reporter assay in LPS/IFNγ-treated RAW 264.7 (or A549) cells. In kind it is cell-based, murine or human. The settings on record: 10 μM compound; 5 μg/ml LPS, 20 ng/ml IFNγ; 18-20 h. On the procedure:
RAW 264.7 cells (or A549 cells) were seeded in 24-well plates (9×10^4 cells/well) and grown overnight in sodium pyruvate-free DMEM with 4 mM glutamine containing 1% non-essential amino acids (Biological Industries, Israel) with antibiotics and 10% heat-inactivated fetal bovine serum or 10% fetal calf serum (Biological Industries, Israel). The cells were then co-transfected with murine or human iNOS or murine COX-II promoter-luciferase reporter plasmids (100 ng/well) and pCMV-β-gal (100 ng/well) using FuGene6 (Roche, Germany) following the protocol provided by the manufacturer. Murine iNOS promoter luciferase plasmids, human iNOS promoter-luciferase reporter plasmids (pGL3-8296), and murine COX-II promoter-luciferase reporter plasmids were generously provided by Drs. Charles J. Lowenstein (John Hopkines University), Joel Moss (National Institute of Health), and Yu-Chih Liang (Taipei Medical University), respectively. […]
The luciferase and β-galactosidase assays were performed using a STEADY-GLO luciferase assay system (Promega) and Galacto-Star assay system (Tropix) according to the manufacturer's instructions. Luminescence was measured in a TOPCOUNT.NXT™ Microplate Scintillation and Luminescence Counter (Packard Inc.). […]

Assay [14] concerns HONE-1 (nasopharyngeal carcinoma). The assay is described as follows: Carcinoma cell growth inhibition (MTS assay), HONE-1. In kind it is cell-based. The settings on record: 72 h. On the procedure:
as §3

The structures appear in SMILES notation.

For the compound `COc1cc2c3c(c4cc(OC)c(OC)cc4c2cc1OC)CN1CCC[C@H]1C3` [Compound 2], the “inhibition of AP 1 activity” value in [1] is given as “inhibited”. In addition, the “inhibition of NF-κB activity, Compound 2 and another P13K/Akt inhibitor” value in assay [2] (Compound 2 and LY294002 named together, LPS/IFNγ-treated RAW264.7 cells) is “significantly inhibited”. The “inhibition of NF-κB activity” value in assay [2] (tested at 0.3, 1, 3, or 10 μM, LPS (10 μg/ml)/IFNγ (20 ng/ml), 5 h, serum-free medium) is reported as “not”. The “inhibition of proliferation of NUGC-3 cells” value (“inhibition … of NUGC-3 cells” for short) in assay [3] was “inhibited”. Further, the “phosphorylation of Akt” value in assay [4] was “enhanced”. Moreover, in assay [5], the “inhibition of production of TNF α” value is “inhibited”. The “inhibition of AP 1 activity in cells with over-expression of MEKK1” value in assay [6] is “inhibited”. Also, the iNOS level result in [7] is given as “lowered”. Further, the “phosphorylation of ATF-2” value in assay [8] is “enhanced”. Further, the “inhibition of pNF-κB activity in cells with over-expression of MEKK1” value in [9] is on record as “inhibited”. For the same compound, the COX-II level result in [10] is on record as “lowered”. The “inhibition of MEKK1 activity or expression” value in [11] is given as “inhibited”. Further, the “expression of c-Jun” value in assay [12] was “inhibited”. The “inhibition of iNOS promoter activity” value in assay [13] is on record as “effectively inhibited”. In [14], the “inhibition of proliferation of HONE-1 cells” value (shortened to “inhibition … of HONE-1 cells”) is listed as “inhibited”.

Turning to `COc1cc2c3c[n+]4c(cc3c3cc(OC)c(OC)c(OC)c3c2cc1OC)CCC4` [Compound 1], the “inhibition … of NUGC-3 cells” value in assay [3] is given as “inhibited”. In addition, the “inhibition … of HONE-1 cells” value in [14] is “inhibited”.

With `COc1cc2c3c(c4cc(OC)c(OC)c(OC)c4c2cc1OC)[C@H](O)[C@@H]1CCC[N+]1([O-])C3` (some centres unmarked) [Compound 4], the “inhibition … of NUGC-3 cells” value in assay [3] is “inhibited”. The “inhibition of iNOS promoter activity” value in assay [13] is reported as “effectively inhibited”. Moreover, in assay [14], the “inhibition … of HONE-1 cells” value is recorded as “inhibited”.
